Experimental data as given in patent US8097656B2, “Nitrogenated trans-stilbene analogs, method for the obtention and medical applications thereof” (Dominion Pharmakine S.L, priority 2005, dated 2012).

What was measured:
[1] = tested on: MB16 cells; experiment: In vitro proliferation of MB16 cells in response to murine HSC soluble factors; type: cell-based; conditions: for Increase in proliferation of B16 cells by MC-CEH (in words): 2.5 μM for 30 minutes before MC-CEH, 48 hours; for Proliferation of MB16 cells in response to murine HSC soluble factors (No. cells per well): 2.5 μM, 30 min before HSC-conditioned media, 48 h, control 16300 ± 300, treatment alone 21660 ± 500
Experimental: Culture of B16 (MB16) and A375 (MA375) melanoma cells. The MB 16 (B16F10 subline) murine tumor cells were cultured at 37° C., with 5% CO2 atmosphere in Dulbecco's modified Eagle's medium (DMEM)-HCO3 penicillin (100 U/ml), streptomycin (100 μg/ml), supplemented with 5% fetal bovine serum and adjusted to pH 7.4. The cells were maintained and subcultured according to the method described by Vidal-Vanaclocha et al. (1994) [Vidal-Vanaclocha, F., Amézaga, C., Asumendi, A., Kaplanski, G. & Dinarello, C. A. Interleukin-1 receptor blockade reduces the number and size of murine B16 melanoma hepatic metastases. Cancer Research, 1994, 54, 2667-2672]. The conditioned media were obtained from subconfluyent cultures maintained in absence of FBS for 24 hours.
In vitro Melanoma cell proliferation test. The MB16 or MA375 cells are seeded (2500 cells/well/200 μl) in DMEM medium (Dulbecco's modified Eagle's medium) with 10% fetal bovine serum (FBS). Once adhered, they were washed to remove the FBS and fresh medium was added in the presence or absence of 2.5 μM of the compounds to be tested. In the experiments with MA375, the compound azaresveratrol (see Table 4) was used, and in the experiments with MB16 cells, the compounds azaresveratrol, JE1:2, JE2:1 or JE2:2 (see FIG. 3) were used. Thirty (30) minutes later, 10 ng/ml of IL-18 or HSC-conditioned media (murines in the case of B16 and human ones in the case of A375) were added to some wells, and the plates were incubated for 48 hours at 37° C. with 5% CO2 Upon completion of the incubation period, the cells were fixed with […] for 1 hours, were washed and were allowed to dry in the incubator at 50° C. for 30 minutes. In following, 100 μl/well of sulforhodamine 101 (0.4% p/v) was added and they were incubated at room temperature in the dark for 30 minutes. After washing, 200 μl/well of Tris base 10 mM pH 10.5 was added and the fluorescence was measured by means of a 530 nm, 620 nm emission excitation filter plate fluorescence reader. The number of cells was calculated by extrapolating said fluorescence data on a standard straight line previously obtained based on the fluorescence emitted in an increasing number of cells.

[2] = tested on: MB16 cells; experiment: Hydrogen peroxide production from MB16 cells (DCFH-DA probe); type: cell-based, murine; conditions: 2.5 μM prior to IL-18; for H2O2 production by MB16 cells treated with IL-18: control 16.0 ± 3, IL-18 alone 34 ± 3.0
Experimental: Determination of hydrogen peroxide production from HSE and MB16 cells. Primary cultures of HSE cells were treated with 10 μg/ml of the DCFH-DA fluorescent probe for 30 minutes at 37° C. and were washed to eliminate the excess fluorochromium. Afterward, fresh culture medium was added thereto in the presence or absence of 2.5 μM of the compounds JE1:2, JE2:1 or JE2:2 and the production of H202 over the course of time was determined (see FIG. 5). The hydrogen peroxide produced by the cells oxidizes the probe, converting it into a fluorescent molecule. Thus, the cell fluorescence produced by the accumulation of DCF made it possible to detect the intracellular production of hydrogen peroxide. In each cell well, it was possible to determine the relative fluorescence value (arbitrary units of fluorescence brightness) in relation to the quantity of hydrogen peroxide produced at different incubation times. In the experiments with MB16 cells, once the cells had been marked with the DCFH-DA probe, they were incubated for 300 minutes with 2.5 μM of the azaresveratrol or JE2:2 compounds, 10 ng/ml of IL-18 (FIG. 4) then having been added.

[3] = tested on: MA375 cells; experiment: MA375 cell adhesion to immobilized VCAM-1 substrates; type: cell-based, human; conditions: 2.5 μM; for Adhesion of MA375 cells with H2O2 to immobilized VCAM-1 (% cells adhered): 10 μM H2O2, control 21.0 ± 4, H2O2 alone 41.3 ± 4.2; for Adhesion of MA375 cells treated with IL-18 to immobilized VCAM-1 (% cells adhered): control 21.0 ± 4, IL-18 alone 31.5 ± 3.2
Experimental: MB16 and MA375 cell adhesion to immobilized VCAM-1 substrates. The MB16 and MA375 cell adhesion tests were conducted on immobilized VCAM-1 substrates (2 μg/ml of recombinant human VCAM-1, R&D Systems, Minneapolis, Minn.) on 96-well plates. To avoid non-specific attachment to the plastic, 0.5% BSA dissolved in PBS was added to the wells for 2 hours at ambient temperature prior to conducting the adhesion test. The melanoma cells were preincubated with 2.5 μM of the compounds to be tested (azaresveratrol, see Table 2; JE1:2, JE2:1 and JE2:2 see FIG. 2; JEM2:2-01 and JEM2:1-02 see FIG. 7; YEF02, YEF03, YEF07, YEF05B, YEF07B and YEF05H. see FIG. 9) for 30 minutes, to which 10 μM of hydrogen peroxide or 10 ng/ml of IL-18 were added, respectively for a further 24 hours. Afterward, the cells were washed and marked with the BCECF-AM fluorescent probe (carboxyfluorescein, 2′,7′-bis-(2-carboxy-ethyl)-5-(6)carboxyfluorescein aminoxymethyl ester). Thirty minutes later, a washing process was performed to remove the excess fluorochromium, the number of viable cells being calculated by means of the trypan blue exclusion test and (5×10^4 cells/well) being added to the 96-well plate. The co-culture plates were incubator-incubated at 37° C. for 1 hours. The percentage of cellular adhesion was calculated by measuring the fluorescence emitted by the adhered cells (obtained after washing the plate) with regard to the fluorescence emitted by the total number of cells added. The results in the figures are given in values related to the adhesion percentages of the untreated melanoma cells.

## Oc1ccc(/N=C/c2cc(O)cc(O)c2)cc1 [azaresveratrol, 5-((E)-(4-Hydroxyphenylimino)methyl)benzene-1,3-diol]
[1]
  Increase in proliferation of B16 cells by MC-CEH (in words): prevented
  Proliferation of MB16 cells in response to murine HSC soluble factors (No. cells per well): 16750 ± 135 No. cells per well
[2]
  Increase of H2O2 production of MB16 cells in response to IL-18 (in words): significantly (P<0.01) inhibited
  H2O2 production by MB16 cells treated with IL-18: 10 ± 2.0
[3]
  Adhesion of MA375 cells with H2O2 to immobilized VCAM-1 (% cells adhered): 4.5 ± 0.3 % cells adhered
  Adhesion of MA375 cells treated with IL-18 to immobilized VCAM-1 (% cells adhered): 5.0 ± 0.3 % cells adhered

## Oc1ccc(C=Cc2cc(O)cc(O)c2)cc1 [resveratrol, reference compound]
[1]
  Increase in proliferation of B16 cells by MC-CEH (in words): prevented
  Proliferation of MB16 cells in response to murine HSC soluble factors (No. cells per well): 16800 ± 250 No. cells per well
[2]
  Increase of H2O2 production of MB16 cells in response to IL-18 (in words): significantly (P<0.01) inhibited
  H2O2 production by MB16 cells treated with IL-18: 12 ± 1.0
[3]
  Adhesion of MA375 cells with H2O2 to immobilized VCAM-1 (% cells adhered): 6.5 ± 0.5 % cells adhered
  Adhesion of MA375 cells treated with IL-18 to immobilized VCAM-1 (% cells adhered): 5.5 ± 0.4 % cells adhered
